The text below walks through data of patent US11377442B2, “Small molecule agonists and antagonists of NR2F6 activity” (ZANDER THERAPEUTICS, INC., priority 2016, dated 2022).

Holding throughout (assay type): cell-based
The target in one assay is T1, NR2F6 (Homo sapiens, UniProt P10588).
T1 construct: expressed in transfected cells; also transient transfection
T1 sequence (P10588 1-404): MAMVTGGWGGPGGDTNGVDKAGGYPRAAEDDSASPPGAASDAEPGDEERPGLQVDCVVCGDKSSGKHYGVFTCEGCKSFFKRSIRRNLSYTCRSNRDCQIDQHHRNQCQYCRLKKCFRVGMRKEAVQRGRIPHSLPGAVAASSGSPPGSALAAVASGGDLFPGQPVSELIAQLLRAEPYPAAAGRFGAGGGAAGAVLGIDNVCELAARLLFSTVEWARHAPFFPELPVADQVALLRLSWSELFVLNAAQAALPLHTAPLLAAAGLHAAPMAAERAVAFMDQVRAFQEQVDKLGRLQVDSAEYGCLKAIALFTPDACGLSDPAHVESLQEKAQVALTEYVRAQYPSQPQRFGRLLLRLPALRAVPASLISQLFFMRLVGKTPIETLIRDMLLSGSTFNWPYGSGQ
Briefly: NR2F6 agonist screening, Firefly signal cmpd/DMSO. Particulars: for activity (in words): screening result.

For assay [1], the target named is T2, ERα (Homo sapiens, UniProt P03372).
T2 construct: expressed in transfected cells
T2 sequence (P03372 1-595): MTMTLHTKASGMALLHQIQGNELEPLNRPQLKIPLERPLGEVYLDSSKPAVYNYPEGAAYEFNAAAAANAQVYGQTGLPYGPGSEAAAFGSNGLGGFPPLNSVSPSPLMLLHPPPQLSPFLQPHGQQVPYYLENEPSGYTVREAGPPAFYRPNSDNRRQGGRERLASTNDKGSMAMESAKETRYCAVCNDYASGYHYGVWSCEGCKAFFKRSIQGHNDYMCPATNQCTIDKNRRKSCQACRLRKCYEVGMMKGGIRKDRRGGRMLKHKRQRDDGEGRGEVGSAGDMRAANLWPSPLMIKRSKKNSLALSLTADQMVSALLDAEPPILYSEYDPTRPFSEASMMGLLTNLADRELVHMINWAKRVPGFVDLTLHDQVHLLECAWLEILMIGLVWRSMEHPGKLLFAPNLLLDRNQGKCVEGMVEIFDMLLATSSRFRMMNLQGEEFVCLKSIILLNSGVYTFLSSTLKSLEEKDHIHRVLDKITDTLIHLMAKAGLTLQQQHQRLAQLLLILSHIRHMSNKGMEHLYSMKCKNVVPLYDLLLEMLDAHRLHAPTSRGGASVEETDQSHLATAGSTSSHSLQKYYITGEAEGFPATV
Briefly: Counterscreening, Firefly signal with ERα transient transfection (Firefly_ERa). Particulars: 10 uM. On the procedure: The methodology for screening candidate compounds as NR2F6 agonists was as follows: For primary screening, hit criteria was ACT %>DMSO control+5*SD (DSO control) at 10 μM, or any compound with S/B>2. For rescreening, hit criteria was ACT %>DMSO control+3*SD (DSO control) in each replicate at 10 μM. For counterscreening, hit criteria was mean ACT<DMSO control+3*SD (DMSO control) with ERα transient transfection in duplicate at 10 μM.

A further assay concerns Renilla. Briefly: Renilla signal in NR2F6 agonist screening, cmpd/DMSO. To be noted: Renilla, read-out: Renilla F4, cmpd/DMSO (mean).
A further assay concerns Renilla_ERa. Briefly: Renilla signal in ERα counterscreen (Renilla_ERa). Particulars: read-out: Renilla ERalpha transient, cmpd/DMSO (mean). Background: Counterscreens check selectivity or assay interference.
Assay [2] addresses T2, ERα. The assay can be described thus: Counterscreening, Firefly signal with ERα transient transfection (Firefly_ERa).

SMILES strings stand for the structures. Read-outs that look alike come from different tables or passages of the source.

As for `CCOC(=O)c1cnc2cc(C)c(C)cc2c1NCCCN(C)C` [Compound Z34], the “Firefly F4, cmpd/DMSO (mean)” value is 1.6 on NR2F6 (2 uM, clone F4); 3.8 on NR2F6 (10 uM, clone F4); 0.7 on NR2F6 (40 uM, clone F4). Further, the “activity (in words)” value at NR2F6 was “particularly good activity”. Also, the “Firefly ERalpha transient, cmpd/DMSO (mean)” value at ERα [1] was 10.3; on ERα [2] (2 uM), 2.0; on ERα [2] (40 uM), 0.9. The fold induction at 2 µM with Renilla (clone F4) was 1.2; with Renilla_ERa, 1.5. Moreover, the fold induction at 10 µM in the assay on Renilla (clone F4) was 0.8; in the assay with Renilla_ERa it was 1. For the same compound, the fold induction at 40 µM worked out at 0.6 in the assay with Renilla (clone F4) and 0.7 with Renilla_ERa.
On to `CC(=O)Nc1ccc(Br)c2nonc12` [Compound Z14], for which the “Firefly F4, cmpd/DMSO (mean)” value came out at 1.2 on NR2F6 (Table 15, 2 uM); 0.8 at NR2F6 (Table 15, 10 uM); 1.2 at NR2F6 (Table 15, 40 uM). The “Firefly ERalpha transient, cmpd/DMSO (mean)” value is on record as 1.2 on ERα [1] (Table 15); 1.0 on ERα [2] (Table 15, 2 uM); 1.0 at ERα [2] (Table 15, 40 uM). In addition, the fold induction at 2 µM in the assay on Renilla (Table 15) worked out at 0.8; with Renilla_ERa (Table 15), 1.1. The fold induction at 10 µM in the assay with Renilla (Table 15) was 0.9; in the assay with Renilla_ERa (Table 15) it was 1.1. The fold induction at 40 µM in the assay on Renilla (Table 15) and in the assay on Renilla_ERa (Table 15) was 1 throughout.
Take `O=c1cccc2n1CC1CC2CN(c2nc(N3CCOCC3)nc(N3CCOCC3)n2)C1` (centres unmarked) [Compound 31]: the “Firefly F4, cmpd/DMSO (mean)” value at NR2F6 (2 uM, clone F4) is recorded as 0.8; on NR2F6 (10 uM, clone F4), 1.0; on NR2F6 (40 uM, clone F4) it was 0.9. For the same compound, the “Firefly ERalpha transient, cmpd/DMSO (mean)” value on ERα [1] turned out to be 1.2; on ERα [2] (2 uM), 0.8; at ERα [2] (40 uM), 1.0. The fold induction at 2 µM with Renilla (clone F4) and with Renilla_ERa was 1 in each case. Further, the fold induction at 10 µM stood at 1 in the assay with Renilla (clone F4) and 1.1 in the assay with Renilla_ERa. Further, the fold induction at 40 µM came to 1 in the assay on Renilla (clone F4) and 1.1 in the assay with Renilla_ERa.
On to `CCOC(=O)c1cnc2c(Cl)cc(Cl)cc2c1NCCCN1CCCC1` [Compound Z36], for which the “Firefly F4, cmpd/DMSO (mean)” value at NR2F6 (2 uM, clone F4) is given as 0.7; at NR2F6 (10 uM, clone F4), 1.8; on NR2F6 (40 uM, clone F4) it was 0.7. The “Firefly ERalpha transient, cmpd/DMSO (mean)” value on ERα [1] was found to be 1.6; on ERα [2] (2 uM), 1.2; at ERα [2] (40 uM), 5.8. In addition, the fold induction at 2 µM in the assay with Renilla (clone F4) amounted to 1; in the assay with Renilla_ERa, 1.2. Besides, the fold induction at 10 µM with Renilla (clone F4) is 1.8; with Renilla_ERa, 1.6. Further, the figures for the fold induction at 40 µM in the assay on Renilla (clone F4) and in the assay on Renilla_ERa were 0.6 and 0.8, respectively.
Consider `O=c1cccc2n1CC1CC2CN(c2nc(N3CCCC3)nc(N3CCCC3)n2)C1` (centres unmarked) [Compound 26], for which the “Firefly F4, cmpd/DMSO (mean)” value turned out to be 1.0 on NR2F6 (2 uM, clone F4); 1.1 on NR2F6 (10 uM, clone F4); 1.3 at NR2F6 (40 uM, clone F4). In addition, the “Firefly ERalpha transient, cmpd/DMSO (mean)” value amounted to 1.3 at ERα [1], 1.0 at ERα [2] (2 uM) and 1.1 at ERα [2] (40 uM). The values for the fold induction at 2 µM in the assay on Renilla (clone F4) and in the assay on Renilla_ERa were 1 and 0.9, respectively. The fold induction at 10 µM amounted to 0.7 in the assay on Renilla (clone F4) and 1 with Renilla_ERa. Moreover, the fold induction at 40 µM in the assay on Renilla (clone F4) was determined as 0.7; with Renilla_ERa, 1.
With `COc1cccc(-c2noc(Cn3nccc(Cl)c3=O)n2)c1` [Compound Z3], the “Firefly F4, cmpd/DMSO (mean)” value on NR2F6 (Table 15, 2 uM) amounted to 1.5; at NR2F6 (Table 15, 10 uM) it was 1.1; at NR2F6 (Table 15, 40 uM), 1.6. Further, the “Firefly ERalpha transient, cmpd/DMSO (mean)” value on ERα [1] (Table 15) is 2.6; at ERα [2] (Table 15, 2 uM), 2.2; at ERα [2] (Table 15, 40 uM) it was 1.7. Besides, the results for the fold induction at 2 µM in the assay with Renilla (Table 15) and with Renilla_ERa (Table 15) were 1.5 and 1.1, respectively. The fold induction at 10 µM with Renilla (Table 15) amounted to 1.4; in the assay with Renilla_ERa (Table 15) it was 1. Also, the fold induction at 40 µM in the assay on Renilla (Table 15) and in the assay with Renilla_ERa (Table 15) was 0.9 in each case.
For `COc1ccc2nc(C(F)(F)F)c(C#N)c(NCCOc3ccc(Cl)cc3)c2c1` [Compound Z40], the “Firefly F4, cmpd/DMSO (mean)” value on NR2F6 (2 uM, clone F4) came to 0.8; at NR2F6 (10 uM, clone F4), 0.7; at NR2F6 (40 uM, clone F4), 0.8. In addition, the results for the “Firefly ERalpha transient, cmpd/DMSO (mean)” value at ERα [1], on ERα [2] (2 uM) and at ERα [2] (40 uM) were 0.3, 1.0 and 1.0, respectively. For the same compound, the results for the fold induction at 2 µM in the assay on Renilla (clone F4) and in the assay on Renilla_ERa were 0.7 and 1, respectively. Besides, the fold induction at 10 µM was determined as 0.6 in the assay with Renilla (clone F4) and 0.7 in the assay with Renilla_ERa. Further, the fold induction at 40 µM is 0.5 with Renilla (clone F4) and 0.6 in the assay with Renilla_ERa.
With `N#CC1=C(N)n2nc(-c3ccccc3)cc2NC1(c1ccc(N2CCOCC2)cc1)C(F)(F)F` (centres unmarked) [Compound Z49], the “Firefly F4, cmpd/DMSO (mean)” value on NR2F6 (2 uM, clone F4) is given as 0.8; at NR2F6 (10 uM, clone F4), 0.7; at NR2F6 (40 uM, clone F4), 0.6. The “Firefly ERalpha transient, cmpd/DMSO (mean)” value is on record as 0.4 at ERα [1], 1.0 on ERα [2] (2 uM) and 0.4 at ERα [2] (40 uM). The fold induction at 2 µM in the assay with Renilla (clone F4) and with Renilla_ERa was 1 each time. The fold induction at 10 µM with Renilla (clone F4) and in the assay on Renilla_ERa was 0.7 throughout. The fold induction at 40 µM with Renilla (clone F4) and in the assay with Renilla_ERa was 0.8 in each case.
For the compound `COC(=O)c1[nH]c2c(c(C(F)(F)F)nc3ccc(OC)cc32)c1N` [Compound Z47], the “Firefly F4, cmpd/DMSO (mean)” value at NR2F6 (2 uM, clone F4) was 0.9; at NR2F6 (10 uM, clone F4), 1.3; on NR2F6 (40 uM, clone F4) it was 2.0. The results for the “Firefly ERalpha transient, cmpd/DMSO (mean)” value on ERα [1], at ERα [2] (2 uM) and at ERα [2] (40 uM) were 1.0, 0.9 and 1.7, respectively. Also, the figures for the fold induction at 2 µM in the assay with Renilla (clone F4) and in the assay with Renilla_ERa were 1.1 and 1.2, respectively. Also, the results for the fold induction at 10 µM in the assay on Renilla (clone F4) and with Renilla_ERa were 1.2 and 1.4, respectively. Moreover, the fold induction at 40 µM came to 1.7 with Renilla (clone F4) and 1.2 in the assay on Renilla_ERa.
`CCOC(=O)c1cnc2ccc(C)cc2c1NCCCN(C)C` [Compound Z33]: the “Firefly F4, cmpd/DMSO (mean)” value is listed as 1.7 at NR2F6 (2 uM, clone F4); 2.0 at NR2F6 (10 uM, clone F4); 6.6 on NR2F6 (40 uM, clone F4). In addition, the “activity (in words)” value at NR2F6 is on record as “particularly good activity”. The entries for the “Firefly ERalpha transient, cmpd/DMSO (mean)” value on ERα [1], on ERα [2] (2 uM) and at ERα [2] (40 uM) were 1.8, 2.1 and 8.8, respectively. For the same compound, the results for the fold induction at 2 µM in the assay on Renilla (clone F4) and with Renilla_ERa were 1.1 and 1, respectively. Further, the fold induction at 10 µM with Renilla (clone F4) stood at 1; with Renilla_ERa, 1.5. For the same compound, the fold induction at 40 µM with Renilla (clone F4) worked out at 0.6; in the assay with Renilla_ERa it was 0.9.
